From patent publication US12338237B2, “Derivatives having 1,2,3,4-tetrahydronaphthalene moiety or pharmaceutically acceptable salt thereof and pharmaceutical compositions comprising the same” (YUHAN CORPORATION, priority 2019, dated 2025)
Read-outs that look alike come from different tables or passages of the source.

Experiments:
[1] = molecular target: glucosylceramide synthase (GCS) (Homo sapiens (Human), UniProt Q16739); assay: Evaluation of inhibitory activities against GCS (enzyme reaction with A549 cell lysate, NBD C6-ceramide, HPLC fluorescence); format: biochemical; conditions: GCS activity in A549 cell lysate, 37° C. for 90 minutes
Chain of glucosylceramide synthase (GCS) (Q16739 whole entry, looked up): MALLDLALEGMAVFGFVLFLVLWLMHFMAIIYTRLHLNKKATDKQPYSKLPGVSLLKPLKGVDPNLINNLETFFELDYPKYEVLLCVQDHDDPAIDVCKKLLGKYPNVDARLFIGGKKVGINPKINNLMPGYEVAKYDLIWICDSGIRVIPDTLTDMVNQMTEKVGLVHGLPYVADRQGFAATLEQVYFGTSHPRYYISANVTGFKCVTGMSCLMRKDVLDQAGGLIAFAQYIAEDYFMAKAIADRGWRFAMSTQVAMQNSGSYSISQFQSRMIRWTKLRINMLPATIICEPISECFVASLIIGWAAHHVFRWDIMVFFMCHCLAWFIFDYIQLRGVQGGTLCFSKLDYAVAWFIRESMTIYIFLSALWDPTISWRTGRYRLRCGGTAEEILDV
In short: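 Lysate of A549 cells in 50 mM HEPES pH 7.3 incubated with test compound and NBD C6-ceramide at 37 °C for 90 min; lipids extracted with chloroform/methanol and GlcCer and ceramide peaks quantified by HPLC fluorescence. Activity from GlcCer area fraction, normalised between DMSO and ibiglustat controls.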

GM1 production = assay: cells; format: cell-based

Structure (SMILES)	IC50 [1] [nM]	IC50 (GM1 production; Homo sapiens, Jurkat, 72 h) [nM]	IC50 (GM1 production; read-out: IC50) [nM]
O=C(NC1CCCc2cc(-c3ccccc3Cl)ccc21)O[C@@H]1CN2CCC1CC2 (stereo partly drawn) [Example 10, (S)-quinuclidin-3-yl (6-(2-chlorophenyl)-1,2,3,4-tetrahydronaphthalen-1-yl)carbamate]	2.56	37.7	
CC1(C)CCc2ccc(-c3ccc(OC(F)(F)F)cc3)cc2C1NC(=O)O[C@@H]1CN2CCC1CC2 (stereo partly drawn) [Example 154, (S)-quinuclidin-3-yl (2,2-dimethyl-7-(4-(trifluoromethoxy)phenyl)-1,2,3,4-tetrahydronaphthalen-1-yl)carbamate]	8.4	17.7	
Cc1ccc(-c2ccc3c(c2)CCCC3NC(=O)O[C@@H]2CN3CCC2CC3)cc1 (stereo partly drawn) [Example 14, (S)-quinuclidin-3-yl (6-(p-tolyl)-1,2,3,4-tetrahydronaphthalen-1-yl)carbamate]	8.8	61.8	
O=C(NC1CCCc2cc(-c3cccc(C(F)(F)F)c3)ccc21)O[C@@H]1CN2CCC1CC2 (stereo partly drawn) [Example 7, (S)-quinuclidin-3-yl (6-(3-(trifluoromethyl)phenyl)-1,2,3,4-tetrahydronaphthalen-1-yl)carbamate]	1.69	13.6	
COc1ccc(-c2ccc3c(c2)CCC2(CC2)C3NC(=O)O[C@@H]2CN3CCC2CC3)c(OC)c1 (stereo partly drawn) [Example 210, (S)-quinuclidin-3-yl (6′-(2,4-dimethoxyphenyl)-3′,4′-dihydro-1′H-spiro[cyclopropane-1,2′-naphthalen]-1′-yl)carbamate]	23.6	44.2	
CC(C)c1cccc(-c2ccc3c(c2)CCCC3NC(=O)O[C@@H]2CN3CCC2CC3)c1 (stereo partly drawn) [Example 40, (S)-quinuclidin-3-yl (6-(3-isopropylphenyl)-1,2,3,4-tetrahydronaphthalen-1-yl)carbamate]	1.77	218	
COCCOc1ccc(-c2ccc3c(c2)CCCC3NC(=O)O[C@@H]2CN3CCC2CC3)cc1 (stereo partly drawn) [Example 25, (S)-quinuclidin-3-yl (6-(4-(2-methoxyethoxy)phenyl)-1,2,3,4-tetrahydronaphthalen-1-yl)carbamate]	15	45.1	
O=C(NC1c2ccc(-c3cccc(OC(F)(F)F)c3)cc2CCC12CC2)O[C@@H]1CN2CCC1CC2 (stereo partly drawn) [Example 193, (S)-quinuclidin-3-yl (6′-(3-(trifluoromethoxy)phenyl)-3′,4′-dihydro-1′H-spiro[cyclopropane-1,2′-naphthalen]-1′-yl)carbamate]	20.9	21.6	
O=C(NC1CCCc2cc(-c3cncnc3)ccc21)O[C@@H]1CN2CCC1CC2 (stereo partly drawn) [Example 53, (S)-quinuclidin-3-yl (6-(pyrimidin-5-yl)-1,2,3,4-tetrahydronaphthalen-1-yl)carbamate]	86.4	314	
COc1ccc(-c2ccc3c(c2)CCC2(CC2)C3NC(=O)O[C@@H]2CN3CCC2CC3)cc1OC (stereo partly drawn) [Example 213, (S)-quinuclidin-3-yl (6′-(3,4-dimethoxyphenyl)-3′,4′-dihydro-1′H-spiro[cyclopropane-1,2′-naphthalen]-1′-yl)carbamate]	34.2	145	
CCCOc1c(C)cc(-c2ccc3c(c2)CCC(C)(C)C3NC(=O)O[C@@H]2CN3CCC2CC3)cc1C (stereo partly drawn) [Example 146, (S)-quinuclidin-3-yl (6-(3,5-dimethyl-4-propoxyphenyl)-2,2-dimethyl-1,2,3,4-tetrahydronaphthalen-1-yl) carbamate]	1.8		0.8
CC(C)Oc1ccc(-c2ccc3c(c2)CCC2(CC2)C3NC(=O)O[C@@H]2CN3CCC2CC3)cc1 (stereo partly drawn) [Example 219, (S)-quinuclidin-3-yl (6′-(4-isopropoxyphenyl)-3′,4′-dihydro-1′H-spiro[cyclopropane-1,2′-naphthalen]-1′-yl)carbamate]	1.1	16	
O=C(NC1c2cc(-c3ccccc3C(F)(F)F)ccc2CCC12CC2)O[C@@H]1CN2CCC1CC2 (stereo partly drawn) [Example 181, (S)-quinuclidin-3-yl (7′-(2-(trifluoromethyl)phenyl)-3′,4′-dihydro-1′H-spiro[cyclopropane-1,2′-naphthalen]-1′-yl)carbamate]	12.7	91.7	
O=C(NC1CCCc2cc(-c3ccc(F)cc3F)ccc21)O[C@@H]1CN2CCC1CC2 (stereo partly drawn) [Example 18, (S)-quinuclidin-3-yl (6-(2,4-difluorophenyl)-1,2,3,4-tetrahydronaphthalen-1-yl)carbamate]	5.41	99.2	
COCCOc1ccccc1-c1ccc2c(c1)C(NC(=O)O[C@@H]1CN3CCC1CC3)C(C)(C)CC2 (stereo partly drawn) [Example 167, (S)-quinuclidin-3-yl (7-(2-(2-methoxyethoxy)phenyl)-2,2-dimethyl-1,2,3,4-tetrahydronaphthalen-1-yl)carbamate]	19.6	103	
CC1(C)CCc2cc(-c3ccccc3C(F)(F)F)ccc2C1NC(=O)O[C@@H]1CN2CCC1CC2 (stereo partly drawn) [Example 96, (S)-quinuclidin-3-yl (2,2-dimethyl-6-(2-(trifluoromethyl)phenyl)-1,2,3,4-tetrahydronaphthalen-1-yl)carbamate]	1.79	3.29	

Structure (SMILES)	IC50 [1] [nM]	IC50 (GM1 production; Homo sapiens, Jurkat, 72 h) [nM]	IC50 (GM1 production; read-out: IC50) [nM]
CCCc1ccc(-c2cc3c(cc2OC)C(NC(=O)O[C@@H]2CN4CCC2CC4)C(C)(C)CC3)cc1 (stereo partly drawn) [Example 235, (S)-quinuclidin-3-yl (7-methoxy-2,2-dimethyl-6-(4-propylphenyl)-1,2,3,4-tetrahydronaphthalen-1-yl)carbamate]	0.19	3.2	
CC1(C)CCc2ccc(-c3ccccc3Cl)cc2C1NC(=O)O[C@@H]1CN2CCC1CC2 (stereo partly drawn) [Example 160, (S)-quinuclidin-3-yl (7-(2-chlorophenyl)-2,2-dimethyl-1,2,3,4-tetrahydronaphthalen-1-yl)carbamate]	14.5	67.7	
COc1ccc(-c2cc3c(cc2OC)C(NC(=O)O[C@@H]2CN4CCC2CC4)C(C)(C)CC3)cc1F (stereo partly drawn) [Example 233, (S)-quinuclidin-3-yl (6-(3-fluoro-4-methoxyphenyl)-7-methoxy-2,2-dimethyl-1,2,3,4-tetrahydronaphthalen-1-yl)carbamate]	0.65	21.7	
CC1(C)CCc2ccc(-c3cccc(C(F)(F)F)c3)cc2C1NC(=O)O[C@@H]1CN2CCC1CC2 (stereo partly drawn) [Example 157, (S)-quinuclidin-3-yl (2,2-dimethyl-7-(3-(trifluoromethyl)phenyl)-1,2,3,4-tetrahydronaphthalen-1-yl)carbamate]	32.2	120	
O=C(NC1c2cc(-c3ccc(Cl)cc3)ccc2CCC12CC2)O[C@@H]1CN2CCC1CC2 (stereo partly drawn) [Example 172, (S)-quinuclidin-3-yl (7′-(4-chlorophenyl)-3′,4′-dihydro-1′H-spiro[cyclopropane-1,2′-naphthalen]-1′-yl)carbamate]	4.83	67.9	
CC1(C)CCc2ccc(-c3cccc(Cl)c3)cc2C1NC(=O)O[C@@H]1CN2CCC1CC2 (stereo partly drawn) [Example 156, (S)-quinuclidin-3-yl (7-(3-chlorophenyl)-2,2-dimethyl-1,2,3,4-tetrahydronaphthalen-1-yl)carbamate]	19.6	132	
CC(C)(C)c1cccc(-c2ccc3c(c2)CCC2(CC2)C3NC(=O)O[C@@H]2CN3CCC2CC3)c1 (stereo partly drawn) [Example 204, (S)-quinuclidin-3-yl (6′-(3-(tert-butyl)phenyl)-3′,4′-dihydro-1′H-spiro[cyclopropane-1,2′-naphthalen]-1′-yl)carbamate]	38.4	92.9	
CC1(C)CCc2cc(-c3ccc(F)cc3)ccc2C1NC(=O)O[C@@H]1CN2CCC1CC2 (stereo partly drawn) [Example 86, (S)-quinuclidin-3-yl (6-(4-fluorophenyl)-2,2-dimethyl-1,2,3,4-tetrahydronaphthalen-1-yl)carbamate]	2.6	14.2	
O=C(NC1CCCc2ccc(-c3cccnc3)cc21)O[C@@H]1CN2CCC1CC2 (stereo partly drawn) [Example 73, (S)-quinuclidin-3-yl (7-(pyridin-3-yl)-1,2,3,4-tetrahydronaphthalen-1-yl)carbamate]	359	587	
CC1(C)CCc2cc(-c3ccccc3F)ccc2C1NC(=O)O[C@@H]1CN2CCC1CC2 (stereo partly drawn) [Example 94, (S)-quinuclidin-3-yl (6-(2-fluorophenyl)-2,2-dimethyl-1,2,3,4-tetrahydronaphthalen-1-yl)carbamate]	0.97	3.1	
Cc1ccc(-c2ccc3c(c2)C(NC(=O)O[C@@H]2CN4CCC2CC4)C2(CC3)CC2)cc1 (stereo partly drawn) [Example 183, (S)-quinuclidin-3-yl (7′-(p-tolyl)-3′,4′-dihydro-1′H-spiro[cyclopropane-1,2′-naphthalen]-1′-yl)carbamate]	12.9	145	
CC(C)Cc1ccc(-c2ccc3c(c2)CCCC3NC(=O)O[C@@H]2CN3CCC2CC3)cc1 (stereo partly drawn) [Example 35, (S)-quinuclidin-3-yl (6-(4-isobutylphenyl)-1,2,3,4-tetrahydronaphthalen-1-yl)carbamate]	9.16	265	
COc1ccc(-c2ccc3c(c2)CCC(C)(C)C3NC(=O)O[C@@H]2CN3CCC2CC3)c(Cl)c1 (stereo partly drawn) [Example 123, (S)-quinuclidin-3-yl (6-(2-chloro-4-methoxyphenyl)-2,2-dimethyl-1,2,3,4-tetrahydronaphthalen-1-yl)carbamate]	0.97	1.43	
CC(C)Oc1ccc(-c2ccc3c(c2)CCC(C)(C)C3NC(=O)O[C@@H]2CN3CCC2CC3)cc1Cl (stereo partly drawn) [Example 149, (S)-quinuclidin-3-yl (6-(3-chloro-4-isopropoxyphenyl)-2,2-dimethyl-1,2,3,4-tetrahydronaphthalen-1-yl)carbamate]	3.5	3.9	
O=C(NC1c2cc(-c3ccc(OC(F)(F)F)cc3)ccc2CCC12CC2)O[C@@H]1CN2CCC1CC2 (stereo partly drawn) [Example 174, (S)-quinuclidin-3-yl (7′-(4-(trifluoromethoxy)phenyl)-3′,4′-dihydro-1′H-spiro[cyclopropane-1,2′-naphthalen]-1′-yl)carbamate]	4.35	39.3	
